From patent EP0528997B1, “DISULFIDE DERIVATIVES OF MERCAPTOACYLAMINO ACIDS” (SCHERING CORPORATION, priority 1990, dated 1991)

Columns and labels:
[1] = tested on: spontaneously hypertensive rats (SHR); test: ANF potentiation procedure (antihypertensive effect in combination with ANF); assay type: in vivo; conditions: drop in blood pressure; 30 mg/kg sc
Description: The antihypertensive effect of mercaptoacylamino acid disulfide derivatives in combination with ANF can be determined according to the following procedures:
Male spontaneously hypertensive rats (SHR), 16-18 weeks old, 270-350 g, are anesthetized with ether and the abdominal aorta is cannulated through the tail artery. The animals are then placed into restrainers to recover from anesthesia (in less than 10 min.) and remain inside throughout the experiments. Through a pressure transducer (Gould P23 series) analog blood pressure signals are registered on a Beckman 612 recorder. A Buxco digital computer is used to obtain mean arterial pressures. Patency of the arterial cannula is maintained with a continuous infusion of 5% dextrose at 0.2 ml/hr. Animals are allowed a 90-min equilibration period. The animals first undergo a challenge with an ANF such as atriopeptin II (AP II) or AP28 30 »g/kg iv and at the end of 60 min. are treated with drug vehicle or a mercapto-acylamino acid subcutaneously. A second ANF challenge is administered 15 min. later and blood pressure is monitored for the next 90 min.

[2] = tested on: DOCA salt hypertension in the rat; test: DOCA salt hypertension model (antihypertensive effect); assay type: in vivo, Sprague Dawley rats; conditions: drop in blood pressure

In the case of `CSCC[C@H](NC(=O)[C@@H](CSSC[C@@H](Cc1ccccc1C)C(=O)N[C@@H](CCSC)C(=O)O)Cc1ccccc1C)C(=O)O` [Example 2, 1,1'-[DITHIOBIS-[2(S)-(2-METHYLBENZYL)-1-OXO-3,1-PROPANEDIYL]]BIS-(S)-METHIONINE], the “ANF Potentiation ΔBP (mmHg)” value [1] is reported as 27 mmHg, the “DOCA Salt ΔBP (mmHg)” value ([2]; 1 mg/kg po) is reported as 41 mmHg and the “DOCA Salt ΔBP (mmHg)” value ([2]; 10 mg/kg po) is reported as 57 mmHg.

With `CCOC(=O)[C@@H](O)CNC(=O)[C@@H](CSSC[C@@H](Cc1ccccc1C)C(=O)NC[C@H](O)C(=O)OCC)Cc1ccccc1C` [Example 3, 1,1'-[DITHIOBIS-[2(S)-(2-METHYLBENZYL)-1-OXO-3,1-PROPANEDIYL]]BIS-(S)-ISOSERINE DIETHYL ESTER] the “ANF Potentiation ΔBP (mmHg)” value [1] was 29 mmHg, the “DOCA Salt ΔBP (mmHg)” value ([2]; 0.1 mg/kg po) was 31 mmHg and the “DOCA Salt ΔBP (mmHg)” value ([2]; 1 mg/kg po) was 30 mmHg. For the same compound, the “DOCA Salt ΔBP (mmHg)” value ([2]; 10 mg/kg po) was 44 mmHg.

`CCOC(=O)[C@H](CCSC)NC(=O)[C@@H](CSSC[C@@H](Cc1ccccc1C)C(=O)N[C@@H](CCSC)C(=O)OCC)Cc1ccccc1C` [Example 1, 1,1'-[DITHIOBIS-[2(S)-(2-METHYLBENZYL)-1-OXO-3,1-PROPANEDIYL]]BIS-(S)-METHIONINE DIETHYL ESTER] was tested, and the “ANF Potentiation ΔBP (mmHg)” value [1] was 0 mmHg and the “DOCA Salt ΔBP (mmHg)” value ([2]; 3 mg/kg po) was 15 mmHg.

For `Cc1ccccc1C[C@H](CSSC[C@@H](Cc1ccccc1C)C(=O)NC[C@H](O)C(=O)O)C(=O)NC[C@H](O)C(=O)O` [Example 4, 1,1'-[DITHIOBIS-[2(S)-(2-METHYLBENZYL)-1-OXO-3,1-PROPANEDIYL]]BIS-(S)-ISOSERINE], the “ANF Potentiation ΔBP (mmHg)” value [1] was 24 mmHg, the “DOCA Salt ΔBP (mmHg)” value ([2]; 0.1 mg/kg po) was 0 mmHg and the “DOCA Salt ΔBP (mmHg)” value ([2]; 1 mg/kg po) was 21 mmHg. The “DOCA Salt ΔBP (mmHg)” value ([2]; 10 mg/kg po) was 31 mmHg.
